Patent US20110312941A1, “1,4-DISUBSTITUTED PIPERIDINES AS VASOPRESSIN RECEPTOR VIA ANTAGONISTS” (VANTIA LIMITED, priority 2009, published 2011)

target: T1, cloned human V1a receptor (Homo sapiens, UniProt P37288); experiment: in vitro functional calcium mobilisation assay (FLIPR), antagonist activity, 1321N1 cells, 250 pM AVP; format: cell-based; conditions: functional pKi derived from pIC50 (Equation 1), FLIPR Ca2+ mobilisation, 1321N1 cells expressing cloned human V1a receptor, read-out: Mean fpKi (Human V1a) (converted)
T1 construct: host or cells: human brain astrocytoma 1321N1 cells
T1 sequence (P37288 whole entry): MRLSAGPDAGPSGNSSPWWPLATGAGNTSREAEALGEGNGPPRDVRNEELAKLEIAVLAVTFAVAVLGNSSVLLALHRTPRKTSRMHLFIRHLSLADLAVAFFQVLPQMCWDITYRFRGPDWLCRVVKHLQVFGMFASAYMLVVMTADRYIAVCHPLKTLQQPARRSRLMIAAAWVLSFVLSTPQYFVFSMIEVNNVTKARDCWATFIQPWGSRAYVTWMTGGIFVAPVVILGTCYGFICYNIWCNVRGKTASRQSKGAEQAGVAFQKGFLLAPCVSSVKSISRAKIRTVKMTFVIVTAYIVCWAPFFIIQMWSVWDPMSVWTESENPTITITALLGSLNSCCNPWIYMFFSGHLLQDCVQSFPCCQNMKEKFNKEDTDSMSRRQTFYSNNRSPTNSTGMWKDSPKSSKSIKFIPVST
Method: The primary assay which may be used to determine the ability of the compounds of formula (1) to inhibit the vasopressin V1a receptor is an in vitro functional calcium mobilisation assay (FLIPR) that measures antagonist activity at a cloned human V1a receptor. The assay is described below.
The antagonist activity of compounds of formula (1) were determined in a Calcium (Ca2+) mobilisation assay using whole cells (human brain astrocytoma 1321N1 cells, ex Perkin Elmer) genetically modified to stably express a cloned human V1a receptor. Dose response curves were determined by displacement of a single concentration of agonist (250 pM AVP, ex Sigma) with increasing concentrations of compound. A pIC50 value is determined by non-linear regression to a 4-parameter logistic equation and a functional pKi (fpKi) derived using Equation 1.
where A=agonist single conc, and A50=the agonist EC50.

Structure (SMILES)	Ki [nM]
Cc1nc2c([nH]1)-c1ccccc1N(C(=O)C1CCN(c3ncccn3)CC1)CC2 [Example 6]	912
Cc1nc2c([nH]1)-c1cc(Cl)ccc1N(C(=O)C1CCN(c3ncccn3)CC1)CC2 [Example 7]	49
Cc1nc2c([nH]1)-c1ccccc1N(C(=O)C1CCN(c3ccccn3)CC1)CC2 [Example 8]	151
O=C(C1CCN(c2ccccn2)CC1)N1CCc2nc(N3CCOCC3)[nH]c2-c2ccccc21 [Example 9]	18.2
Cc1ccc(N2CCC(C(=O)N3CCc4nc(N5CCOCC5)[nH]c4-c4ccccc43)CC2)nc1 [Example 12]	2.14
CCc1nc2c([nH]1)-c1cc(C)ccc1N(C(=O)C1CCN(c3ncccc3C)CC1)CC2 [Example 17]	5.01
CCc1nc2c([nH]1)-c1cc(C)ccc1N(C(=O)C1CCN(c3cc(C)ccn3)CC1)CC2 [Example 18]	2.29
CCc1nc2c([nH]1)-c1cc(C)ccc1N(C(=O)C1CCN(c3cc(C)ccn3)CC1)CC2 [Example 19]	2.34
CCCc1nc2c([nH]1)-c1cc(C)ccc1N(C(=O)C1CCN(c3ccccn3)CC1)CC2 [Example 20]	12.3
CCCc1nc2c([nH]1)-c1cc(C)ccc1N(C(=O)C1CCN(c3ncccc3C)CC1)CC2 [Example 21]	4.47
CCCc1nc2c([nH]1)-c1cc(C)ccc1N(C(=O)C1CCN(c3cc(C)ccn3)CC1)CC2 [Example 22]	2.04
CCCc1nc2c([nH]1)-c1cc(C)ccc1N(C(=O)C1CCN(c3ccc(C)cn3)CC1)CC2 [Example 23]	2.14
Cc1ccc2c(c1)-c1[nH]c(C3CC3)nc1CCN2C(=O)C1CCN(c2ccccn2)CC1 [Example 24]	8.71
Cc1ccc(N2CCC(C(=O)N3CCc4nc(C5CC5)[nH]c4-c4cc(C)ccc43)CC2)nc1 [Example 25]	1.51
CCCCc1nc2c([nH]1)CCN(C(=O)C1CCN(c3ccccn3)CC1)c1ccc(C)cc1-2 [Example 26]	18.2
CCCCc1nc2c([nH]1)CCN(C(=O)C1CCN(c3ccc(C)cn3)CC1)c1ccc(C)cc1-2 [Example 27]	4.47
Cc1ccc2c(c1)-c1nc(CC(C)C)[nH]c1CCN2C(=O)C1CCN(c2ccccn2)CC1 [Example 28]	13.5
Cc1ccc(N2CCC(C(=O)N3CCc4[nH]c(CC(C)C)nc4-c4cc(C)ccc43)CC2)nc1 [Example 29]	2.69
Cc1ccc(N2CCC(C(=O)N3CCc4nc(N5CCN(C)CC5)[nH]c4-c4cc(C)ccc43)CC2)nc1 [Example 30]	1.78
Cc1ccnc(N2CCC(C(=O)N3CCc4nc(C5CCOCC5)[nH]c4-c4cc(C)ccc43)CC2)c1 [Example 38]	2.24
Cc1ccc(N2CCC(C(=O)N3CCc4nc(C5CCOCC5)[nH]c4-c4cc(C)ccc43)CC2)nc1 [Example 39]	2
COc1ccnc(N2CCC(C(=O)N3CCc4nc(C5CCOCC5)[nH]c4-c4cc(C)ccc43)CC2)c1 [Example 41]	2.34
COc1ccc(N2CCC(C(=O)N3CCc4nc(C5CCOCC5)[nH]c4-c4cc(C)ccc43)CC2)nc1 [Example 42]	5.62
Cc1ccc(N2CCC(C(=O)N3CCc4nc(N5CCCC5)[nH]c4-c4cc(C)ccc43)CC2)nc1 [Example 43]	7.59
Cc1nc2c([nH]1)-c1cc(Cl)ccc1N(C(=O)C1CCN(c3ccccn3)CC1)CC2 [Example 44]	12.6
Cc1ccc(N2CCC(C(=O)N3CCc4nc(C)[nH]c4-c4cc(Cl)ccc43)CC2)nc1 [Example 45, (9-Chloro-2-methyl-4,5-dihydro-1H-1,3,6-triaza-benzo[e]azulen-6-yl)-(5′-methyl-3,4,5,6-tetrahydro-2H-[1,2′]bipyridinyl-4-yl)-methanone]	6.31

Continued, values first:

Ki [nM]	Structure (SMILES)
0.977	Cc1ccc(N2CCC(C(=O)N3CCc4nc(N5CCOCC5)[nH]c4-c4cc(C)ccc43)CC2)nc1 [Example 1, (9-Methyl-2-morpholin-4-yl-4,5-dihydro-1H-1,3,6-triaza-benzo[e]azulen-6-yl)-(5′-methyl-3,4,5,6-tetrahydro-2H-[1,2′]bipyridinyl-4-yl)-methanone]
1.45	Cc1ccc2c(c1)-c1[nH]c(N3CCOCC3)nc1CCN2C(=O)C1CCN(c2ncccc2C)CC1 [Example 2, (9-Methyl-2-morpholin-4-yl-4,5-dihydro-1H-1,3,6-triaza-benzo[e]azulen-6-yl)-(3′-methyl-3,4,5,6-tetrahydro-2H-[1,2′]bipyridinyl-4-yl)-methanone]
0.977	COc1cccnc1N1CCC(C(=O)N2CCc3nc(N4CCOCC4)[nH]c3-c3cc(C)ccc32)CC1 [Example 3, (3′-Methoxy-3,4,5,6-tetrahydro-2H-[1,2′]bipyridinyl-4-yl)-(9-methyl-2-morpholin-4-yl-4,5-dihydro-1H-1,3,6-triaza-benzo[e]azulen-6-yl)-methanone]
1.48	Cc1ccc2c(c1)-c1[nH]c(N3CCOCC3)nc1CCN2C(=O)C1CCN(c2ccc(C)nc2)CC1 [Example 4, (9-Methyl-2-morpholin-4-yl-4,5-dihydro-1H-1,3,6-triaza-benzo[e]azulen-6-yl)-(6′-methyl-3,4,5,6-tetrahydro-2H-[1,3′]bipyridinyl-4-yl)-methanone]
1.78	Cc1cccc(N2CCC(C(=O)N3CCc4nc(N5CCOCC5)[nH]c4-c4cc(F)ccc43)CC2)n1 [Example 5, (9-Fluoro-2-morpholin-4-yl-4,5-dihydro-1H-1,3,6-triaza-benzo[e]azulen-6-yl)-(6′-methyl-3,4,5,6-tetrahydro-2H-[1,2′]bipyridinyl-4-yl)-methanone]
5.01	Cc1cccnc1N1CCC(C(=O)N2CCc3nc(N4CCOCC4)[nH]c3-c3ccccc32)CC1 [Example 10]
3.72	Cc1ccnc(N2CCC(C(=O)N3CCc4nc(N5CCOCC5)[nH]c4-c4ccccc43)CC2)c1 [Example 11]
7.94	O=C(C1CCN(c2ccccn2)CC1)N1CCc2nc(N3CCOCC3)[nH]c2-c2cc(F)ccc21 [Example 13]
2.51	Cc1cccnc1N1CCC(C(=O)N2CCc3nc(N4CCOCC4)[nH]c3-c3cc(F)ccc32)CC1 [Example 14]
1.95	Cc1ccnc(N2CCC(C(=O)N3CCc4nc(N5CCOCC5)[nH]c4-c4cc(F)ccc43)CC2)c1 [Example 15]
2.95	Cc1ccc(N2CCC(C(=O)N3CCc4nc(N5CCOCC5)[nH]c4-c4cc(F)ccc43)CC2)nc1 [Example 16]
3.8	Cc1ccc2c(c1)-c1[nH]c(N3CCOCC3)nc1CCN2C(=O)C1CCN(c2ccccn2)CC1 [Example 31]
1.58	Cc1ccnc(N2CCC(C(=O)N3CCc4nc(N5CCOCC5)[nH]c4-c4cc(C)ccc43)CC2)c1 [Example 32]
0.977	COc1ccnc(N2CCC(C(=O)N3CCc4nc(N5CCOCC5)[nH]c4-c4cc(C)ccc43)CC2)c1 [Example 33]
2.69	COc1ccc(N2CCC(C(=O)N3CCc4nc(N5CCOCC5)[nH]c4-c4cc(C)ccc43)CC2)nc1 [Example 34]
7.08	Cc1ccc2c(c1)-c1[nH]c(N3CCOCC3)nc1CCN2C(=O)C1CCN(c2ccc(C(F)(F)F)cn2)CC1 [Example 35]
97.7	Cc1ccc2c(c1)-c1[nH]c(N3CCOCC3)nc1CCN2C(=O)C1CCN(c2ccc(C#N)cn2)CC1 [Example 36]
4.37	Cc1ccc2c(c1)-c1[nH]c(C3CCOCC3)nc1CCN2C(=O)C1CCN(c2ncccc2C)CC1 [Example 37]
1.26	COc1cccnc1N1CCC(C(=O)N2CCc3nc(C4CCOCC4)[nH]c3-c3cc(C)ccc32)CC1 [Example 40]
